The text below walks through data of patent EP0239801B1, “Plant cells resistant to herbicidal glutamine synthetase inhibitors” (THE GENERAL HOSPITAL CORPORATION, priority 1986, dated 1987).

The structures appear in SMILES notation. Where two headings read alike, the source gives them in different places.

Assay [1] concerns the target pea leaf glutamine synthetase. The conditions noted are these: cited from earlier work.
For a further assay, the system named is monocotyledonous weeds. As to conditions: field trials; Schwerdtle 1981; cited from earlier work.
Assay [2] deals with glutamine synthetase from E. coli (Escherichia coli, UniProt P0A9C5). As to conditions: competitive inhibitor; cited from earlier work.
Sequence of glutamine synthetase from E. coli (P0A9C5 2-469): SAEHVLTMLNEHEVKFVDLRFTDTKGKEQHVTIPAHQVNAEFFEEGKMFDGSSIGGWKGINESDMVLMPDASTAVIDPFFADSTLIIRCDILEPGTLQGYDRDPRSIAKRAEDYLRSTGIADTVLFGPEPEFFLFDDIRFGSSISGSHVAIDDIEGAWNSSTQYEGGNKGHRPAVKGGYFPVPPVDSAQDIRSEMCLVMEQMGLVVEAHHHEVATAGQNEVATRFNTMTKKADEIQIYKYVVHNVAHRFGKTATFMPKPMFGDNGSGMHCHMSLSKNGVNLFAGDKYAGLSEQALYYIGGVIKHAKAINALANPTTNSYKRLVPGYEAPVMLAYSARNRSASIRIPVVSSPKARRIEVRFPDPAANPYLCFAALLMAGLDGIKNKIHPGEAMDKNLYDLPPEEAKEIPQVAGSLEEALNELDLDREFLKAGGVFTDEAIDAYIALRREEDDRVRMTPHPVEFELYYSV
The subject of another assay is dicotyledonous weeds. The conditions noted are these: field trials in West Germany, Spain, South Africa, U.S.A. and Japan; Schwerdtle 1981; cited from earlier work.
The test system of a further assay is GS. Nature of the assay: GS activity of cell extracts in the presence of various amounts of phosphinothricin. The assay is classed as biochemical, alfalfa. As to conditions: both cell types. As to the method:
When the protein patterns of crude cell extracts of the susceptible and resistant cell lines were compared by SDS-polyacrylamide gel electrophoresis, the overproduction of a polypeptide in the molecular weight range 40-42 KD could be observed in the PPT-resistant cell line. Purified GS of alfalfa has the same molecular weight. The enzyme activity of the cell extracts was determined in parallel. The specific GS-activity in the resistant cells was 5-10 fold higher than in wild-type cells. The specific activity of GS in the PPT-resistant cell lines is in the same order of magnitude as in root nodule tissue of alfalfa, which, as all nodule tissues of efficiently dinitrogen fixing legumes, has high GS-activity.

Assay [3] relates to variant PPT resistant alfalfa cell line. Nature of the assay: Growth of suspension cultures (packed cell volume), selected resistant cells. The assay is classed as cell-based. As to the method:
The amide nitrogen of glutamine provides the source of nitrogen for many biosynthetic reactions, indicating a central role for GS in nitrogen metabolism.
Selection is carried out in an appropriate culture medium by cultivating plant cells in the presence of stepwise increases of the herbicidal GS-inhibitor in the medium. After a given period of time has elapsed, such as, for example, a few weeks to several months, it is possible to select a cell population which is several-fold more resistant to the herbicidal GS-inhibitor than the original plant cells. For example, when the cells are alfalfa and the inhibitor is PPT, it has been possible to obtain a PPT-resistant alfalfa cell line after one year of stepwise PPT increases, which line was 20-fold more resistant to PPT than the original line. […] This was never possible by plating wild-type cells.
An alfalfa cell line which is able to grow in the presence of 3 mM L-phosphinothricin in the culture medium was selected. Alfalfa was chosen since it is one of the model plants in which the regeneration of a whole plant from single isolated cells or protoplasts can be readily achieved.
The selection of the phosphinothricin resistant alfalfa line was done by stepwise increase of the inhibitor concentration in the liquid culture medium. […]

For `CS(=N)(=O)CCC(N)C(=O)O` (stereo not shown) [MSO, methionine sulfoximime], the Ki in assay [1] (read-out: Ki value) is 160 µM.

With `CP(=O)(O)CC[C@H](N)C(=O)O` [PPT, phosphinothricin], the Ki is 73 µM in assay [1] (mixed competitive inhibitor, Leason et al. 1982, read-out: apparent Ki value) and 5.9 µM in assay [2]. Further, the weed control entry with monocotyledonous weeds is listed as “somewhat higher quantities were needed for good control”; with dicotyledonous weeds, “well controlled”. Also, the “enzyme inhibition in wild-type versus resistant cell extracts” value with GS is on record as “same degree of enzyme inhibition”.

Consider `CP(=O)(O)CC[C@H](N)C(=O)O` [L-phosphinothricin], for which the “concentration in the culture medium in the presence of which the selected cell line is able to grow” value in assay [3] is 3 mM.
